{
  "source": "patent US20250177525A1",
  "about": "“POLYDONOR CD4+ T CELLS EXPRESSING IL-10 AND USES THEREOF” (TR1X, INC., priority 2021, published 2025)",
  "system": "NLPR3 inflammasome",
  "assay": "IL-1β production by LPS activated monocytes",
  "format": "cell-based, human",
  "conditions": "anti-IL-10R antibody",
  "protocol": "CD14^+ monocytes were isolated from PBMC using a pan monocyte isolation kit (Miltenyi Biotec, Bergisch Gladbach, Germany) and plated in 96 flat microtiter wells at 2×10^5/200 μL per well and cultured in the presence of LPS. The cells were cultured further in the presence of Z-YVADfmk (20 microMol), MMC950 (10 microMol), IL-10 (10 ng/mL) or various concentrations of single- or pooled donor CD4^IL-10 cell supernatants as summarized in Table 1.\nThe supernatants were obtained from single- or pooled donor CD4^IL-10 cells activated for 72 hours with a combination of CD3 and CD28 antibodies as described previously. (Andolfi et al. 2012, Mol. Therapy Vol. 20, 1778-1790, Locafaro et al. Mol Ther 2017, 25, 2254) In some cases (FIGS. 19C and 19D), the monocytes were incubated with LPS in combination with the NLPR3 inflammasome activator nigericin (“NIG”) which was added during the last 30 minutes of the LPS activation.\nThe NLPR3 inflammasome was activated by LPS, resulting in the production of mature caspase 1 and the biologically active forms of IL-1β and IL-18.",
  "data": [
    {"compound": "CC(C)(O)c1coc(S(=O)(=O)NC(=O)Nc2c3c(cc4c2CCC4)CCC3)c1", "note": "[MCC950]", "values": [
      {"measurement": "effect of anti-IL-10 receptor antibody on the inhibitory effects", "result": "no effect"}
    ]},
    {"compound": "Z-YVADfmk [Z-VADfmk]", "values": [
      {"measurement": "effect of anti-IL-10 receptor antibody on the inhibitory effects", "result": "no effect"}
    ]}
  ]
}
